The results in this text go back to article PMC9558053, “Development of a novel high-throughput screen for the identification of new inhibitors of protein S-acylation” (The Journal of Biological Chemistry, 2022).

This experiment deals with T1, human zDHHC2 (Homo sapiens, UniProt Q9UIJ5).
T1 construct: expressed in transfected cells; host or cells: HEK293T
T1 sequence (Q9UIJ5 1-367): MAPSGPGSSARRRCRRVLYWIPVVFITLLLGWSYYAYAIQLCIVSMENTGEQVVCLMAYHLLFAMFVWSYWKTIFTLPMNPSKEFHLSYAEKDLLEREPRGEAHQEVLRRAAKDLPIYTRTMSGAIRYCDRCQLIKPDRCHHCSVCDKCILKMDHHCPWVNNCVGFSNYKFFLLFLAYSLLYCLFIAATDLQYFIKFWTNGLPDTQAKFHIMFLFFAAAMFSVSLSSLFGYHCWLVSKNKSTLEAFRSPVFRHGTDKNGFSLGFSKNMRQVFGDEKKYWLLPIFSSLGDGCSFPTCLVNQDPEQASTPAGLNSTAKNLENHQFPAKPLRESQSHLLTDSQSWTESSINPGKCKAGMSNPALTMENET
Put plainly: GFP-SNAP25b S-acylation in HEK293T cells co-expressing zDHHC2, copper-catalyzed click chemistry, Western blot. It counts as cell-based. The conditions noted are these: for inhibition at 25 µM: HEK-293T, compound 25 μM, 4 h preincubation + 4 h labeling, read-out: SNAP25 S-acylation inhibition (%), zDHHC2; for inhibition at 25 µM / zDHHC2-mediated substrate (SNAP25) S-acylation Hill slope / IC50: in cellulo HEK293T; for zDHHC2-mediated substrate (SNAP25) S-acylation Hill slope / IC50: Western blot; for IC50: read-out: zDHHC2-mediated substrate (SNAP25) S-acylation IC50 (95 CI); for GFP-SNAP25 S-acylation in cell-based assays, newly synthesized compounds: resynthesized (UoS) material vs original hits, Supplemental Fig. 2 (zD2, zD3, zD7, zD15, zD17). On the procedure:
The inhibitory activity of TTZ-1 and TTZ-2 on cells expressing SNAP25 and zDHHC2 was also examined. Human embryonic kidney 293T (HEK293T) cells were transfected with plasmids encoding GFP-tagged SNAP25b and HA-tagged zDHHC2. Cells were then preincubated for 4 h with either dimethyl sulfoxide (DMSO) as a vehicle control or increasing concentrations of TTZ-1/TTZ-2 (diluted in serum-free medium) before being metabolically labeled for a further 4 h with C16:0-azide. Samples were then lysed and processed by copper-catalyzed click chemistry to reveal the extent of S-acylation.
Figure 5 Activity of TTZ-1 and TTZ-2 against SNAP25 S-acylation by human zDHHC2 expressed in mammalian cells. HEK293T cells were transfected with a plasmid encoding GFP-SNAP25b together with a plasmid encoding human zDHHC2 (+zD2) or a control plasmid pEF-BOS-HA. Cells were preincubated for 4 h with increasing concentrations of TTZ-1 (A) or TTZ-2 (B) or DMSO (as a control) before metabolic labeling with 100 μM C16:0-azide for another 4 h. Cells were lysed, and proteins having incorporated C16:0-azide were labeled by click chemistry with an alkyne-IR800 dye. Protein samples were then resolved by SDS-PAGE and transferred to nitrocellulose membranes that were probed with an anti-GFP antibody (IR680). Representative images are shown for cells treated with TTZ-1 (A) or TTZ-2 (B). Top panels, click chemistry signal (top panel, Click [IR800]) and GFP immunoblot (middle panel, GFP [IR680]). Positions of the molecular mass markers (in kilodalton) are indicated on the right side of the membranes. Bottom panels A and B, data from three independent experiments performed in duplicate were quantified, and the inhibition of GFP-SNAP25b S-acylation was determined as stated in the Experimental procedures section. Graphs show mean ± SEM of inhibition of normalized S-acylation (click signal/GFP signal) in the presence of each compound. Data were analyzed and fit to a nonlinear curve using the log(inhibitor) versus normalized response (variable slope) equation. DMSO, dimethyl sulfoxide; HA, hemagglutinin; HEK293T, human embryonic kidney 293T cell line; TTZ, tetrazole; zDHHC, zinc finger DHHC domain–containing protein.
HEK293T cells were plated on poly-D-lysine–coated 24-well plates (catalog no.: 356413; Corning BioCoat, VWR) and transfected with 2.4 μg of pEF-zDHHC2 plasmid (or the control empty plasmid pEF-BOS-HA) for the measurement of zDHHC2 autoacylation and 4.8 μl of Lipofectamine 2000 (Invitrogen). For substrate acylation, cells were transfected with 1.6 μg of pEF-zDHHC plasmid (or the control empty plasmid pEF-BOS-HA) together with 0.8 μg of EGFP-SNAP25b plasmid and 4.8 μl of Lipofectamine 2000. Twenty-four hours post-transfection, cells were washed once with PBS and preincubated with ONO or UoS compounds diluted in 250 μl of serum-free DMEM for 4 h. S-acylation labeling was then started by the addition of 50 μl of 600 μM of either unmodified palmitic acid C16:0 or C16:0-azide (final concentration of 100 μM) diluted in serum-free DMEM supplemented with 1 mg/ml fatty acid–free BSA (Sigma; catalog no.: A7030). Cells were labeled for 4 h, washed once with PBS, then lysed on ice in 100 μl of 50 mM Tris (pH 8) containing 0.5% SDS and protease inhibitors (Sigma; catalog no.: P8340). Conjugation of IR800 alkyne dye or mPEG5K alkyne to C16:0-azide was carried out for 1 h at room temperature with end-over-end rotation by adding an equal volume of freshly prepared click chemistry reaction mixture containing the following: 5 μM IRDye 800CW alkyne (catalog no.: 929-60002; Li-COR) or 200 μM of mPEG5K-alkyne (catalog no.: JKA3177; Sigma), 4 mM CuSO4 (catalog no.: 451657; Sigma), 400 μM Tris[(1-benzyl-1H-1,2,3-triazol-4-yl)methyl]amine (catalog no.: 678937; Sigma), and 8 mM ascorbic acid (catalog no.: A15613; Alpha Aesar) in distilled water. About 67 μl of 4 × SDS-PAGE sample buffer containing 100 mM DTT was then added to the 200 μl sample. […]
In general terms: Immunoblotting shows a protein as a band on a membrane.

What is called inhibition is the change of the read-out against control, counted positive when it falls. As a reminder, the IC50 is the concentration at which inhibition is half-maximal. For `CCCCCCCOc1ccc(C(=O)Nc2cccc3c2OC(c2nnn[nH]2)CN3)cc1` (centres unmarked) [TTZ-1, N-(2-(1H-Tetrazol-5-yl)-3,4-dihydro-2H-benzo[b][1,4]oxazin-8-yl)-4-(heptyloxy)benzamide], the inhibition at 25 µM amounted to 113 ± 5%; the “zDHHC2-mediated substrate (SNAP25) S-acylation Hill slope” value is reported as 7.6; the IC50 was 14.4 µM; the “GFP-SNAP25 S-acylation in cell-based assays, newly synthesized compounds” value is recorded as “results comparable to the original hit compounds”.

Turning to `O=C(Nc1cccc2c1OC(c1nnn[nH]1)CN2)c1ccc(OCCCCc2ccccc2)cc1` (centres unmarked) [TTZ-2, N-(2-(1H-Tetrazol-5-yl)-3,4-dihydro-2H-benzo[b][1,4]oxazin-8-yl)-4-(4-phenylbutoxy)benzamide], the inhibition at 25 µM amounted to 84 ± 6%; the “zDHHC2-mediated substrate (SNAP25) S-acylation Hill slope” value was 4.6; the IC50 was 18.8 µM; the “GFP-SNAP25 S-acylation in cell-based assays, newly synthesized compounds” value is listed as “results comparable to the original hit compounds”.
